Series [1] has as its target T1, human neutrophil elastase (HNE) (Homo sapiens, UniProt P08246).
T1 construct: purchased Elastin Products Company, MO, USA
T1 sequence (P08246 30-267): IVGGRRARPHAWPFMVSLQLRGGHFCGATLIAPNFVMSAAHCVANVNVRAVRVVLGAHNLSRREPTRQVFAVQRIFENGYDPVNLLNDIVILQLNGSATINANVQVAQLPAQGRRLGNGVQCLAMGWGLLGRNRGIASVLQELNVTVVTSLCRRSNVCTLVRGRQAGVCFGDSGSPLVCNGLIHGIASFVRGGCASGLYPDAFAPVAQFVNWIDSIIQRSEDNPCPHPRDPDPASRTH
The experiment in a line: Plate reader assessment of probe de-quenching with purified HNE. It counts as biochemical. The method, then:
To generate an emission spectrum, NAP was excited at 430 nm to ensure the spectrum could be visualized to the x-axis. Excitation/absorbance spectra were obtained with NAP diluted to 5 µM in PBS or freshly prepared pH buffer. Purified HNE (Elastin Products Company, MO, USA) and purified proteinase 3 (Sigma-Aldrich, Poole, UK) were made up according to the manufacturer’s instructions to yield appropriate stock concentrations. Stock preparations of purified enzyme were prepared according to manufacturers’ instructions and subsequently diluted appropriately with Phosphate Buffered Saline (PBS, Thermoscientific, MA, USA) and NAP to achieve a final volume of 200 µL per condition and a final NAP concentration of 5 µM. Solutions were prepared directly into 96 well plates (Corning, NY, USA) on ice, with or without the human neutrophil elastase inhibitor Sivelestat (ONO-5046, 100 µM, Tocris, Bristol, UK). Plates were subsequently incubated at 37 °C with fluorescent parameters recorded every minute for 1 h (Fig. 1C, excitation 488 nm, emission 525 nm). All fluorescence parameters were recorded using a microplate reader (Synergy H1 hybrid reader, BioTek, Potton, UK,).

In series [2] the test system is erythrocytes. The series can be described thus: Erythrocyte haemolysis (membrane toxicity). The format is cell-based, human. Conditions: NAP 5 µM or working concentration × 2, 1 h 37 °C, absorbance 350 nm, vs Triton X-100 0.4%. The method, then: (§1) Membrane toxicity of NAP was assessed using erythrocyte haemolysis. Isolated erythrocytes remaining after leukocyte separation were diluted 1:5 with PBS without cations and 50 µL of this red cell suspension was added to wells of a 96-well plate. Working concentration of NAP (5 µM), or working concentration × 2, was added to the relevant well. Positive control wells contained Triton X-100 (0.4%, Sigma-Aldrich) and negative control wells contained PBS w/o only. The 96-well plate was incubated for one hour at 37 °C in a humidified environment. Following incubation, 180 µL of PBS without cations was added to each well and the plate was centrifuged at 2500 rpm for 10 min. 100 µL of supernatant from each well was removed and aliquoted into clean wells. Absorbance at 350 nm was recorded using a plate reader. Triplicate repeats were pooled to yield an overall mean point estimate ± SEM of haemolysis that was expressed as a percentage of the positive control. For neutrophil toxicity freshly isolated human peripheral neutrophils were resuspended at 10 × 10^6 cells/mL in IMDM with 10% autologous serum and cultured for 18hrs ± 5 µM NAP at 37 degrees in a 5% CO2 incubator. […] Duplicate repeats were pooled to yield an overall mean point estimate ± SEM of apoptosis and necrosis that was expressed as a percentage of total cells.

In series [3] the test system is freshly isolated human peripheral neutrophils. The series can be described thus: Neutrophil toxicity (Annexin V / propidium iodide flow cytometry). The format is cell-based. To be noted: 5 µM NAP, 18 h, 37 °C, IMDM with 10% autologous serum, Annexin V/PI. The method, then:
as §1

Series [4] concerns rats. The series can be described thus: GLP toxicology study, delivery via the trachea. The format is in vivo, rat. The method, then: NAP was delivered via the trachea to rats in a Contract Research Organization Good Laboratory Practice (GLP) toxicology study at approximately 700 times the human dose. NAP (100 µg) was instilled and rats underwent necroscopy at 3 and 15 days after delivery. […] The release specifications for NAP drug substance and drug product are shown in Supplementary tables S3 and S4.
All experiments using human volunteers were performed following approval from the appropriate regional ethics committee (REC) and informed consent was obtained from each participant or their personal legal representative for adults with incapacity (in accordance with the Adults with Incapacity (Scotland) Act 2000). BALF for alveolar macrophages: (East of Scotland Research Ethics Committee 1 no: 07/S1102/20), blood for assessment of leucocyte populations (Lothian Research Ethics Committee no: 08/S1103/38), and first-in-human assessment of probe performance and safety (Scotland A Research Ethics Committee no: 12/SS/0004, EudraCT 2011-006169-17, NCT01532024). All methods were performed in accordance with the relevant guidelines and regulations. Animal toxicology was conducted in compliance with UK Good Laboratory Practice Regulations by a third party contract research organization (Covance Laboratories Ltd, Harrogate, UK) under Covance UK Home Office License for toxicology. […]

Series [5] can be described thus: GLP AMES mutagenicity test, microsuspension-modified method.
The subject of series [6] is freshly isolated neutrophils. The experiment in a line: Flow cytometry of intracellular NAP fluorescence in isolated neutrophils. The format is cell-based, human. Conditions: A23187 10 µM activated neutrophils, NAP 5 µM; Dynasore Hydrate 30 µM, DPI 10 µM, Sivelestat 100 µM; 30 min 37 °C.
Method: Neutrophils were suspended in PBS with divalent cations at a concentration of 10 × 10^6/mL. […] Incubation took place at 37 °C for 30 min and samples were shaken at 500 rpm using an orbital plate shaker (Thermomixer comfort, Eppendorf, Hamburg, Germany). Suspensions were then incubated with anti-human CD11b-APC (1:100 dilution, Clone ICRF44, Biolegend, CA, USA) at 22 °C for 30 min at 500 rpm before the application of NAP to a final concentration of 5 µM for 15 min at 22 °C and 500 rpm. Cells were washed in PBS without divalent cations at 350 g for 5 min at room temperature using a microtube centrifuge (Biofuge fresco, Heraeus, Hanau, Germany) and reconstituted in 175 µL PBS without divalent cations. Samples were loaded onto a 96 round-bottomed well plate (Corning).
Flow cytometry was performed using an Accuri C6 flow cytometer and BD CSampler software (both Becton–Dickinson, NJ, USA). Compensation beads and single stain controls were used where appropriate. […] The cytometer was thresholded on forward scatter to eliminate debris. The cytometer was aligned monthly using Calibrite 3, APC and 8 peak beads (Becton–Dickinson) to calibrate scatter and fluorescence parameters.
Data analyses were performed using Flowjo v10.0.8r1 (Treestar, Ashland, OR, USA). Samples were repeated in duplicate for each individual donor and pooled to yield a point estimate for each condition and each donor. The point estimates from different donors were pooled to yield an overall mean point estimate for each condition ± SE.
Series [7] in a line: Change in fluorescence with pH (plate reader). It counts as physicochemical. Conditions: carboxyfluorescein 15 µM, freshly made pH buffer; n = 1, in triplicate.
The subject of series [8] is isolated healthy human neutrophils. The series can be described thus: Confocal time course of primed neutrophils activated with fMLF. It counts as cell-based. Conditions: co-incubation with Sivelestat 100 µM; Cytochalasin B primed, fMLF 500 nM, NAP 5 µM. The method, then:
Where stated commercial stains were used in accordance with the manufacturer’s instructions or applied to a suspension of the relevant cells in eppendorfs at a concentration of 1:1000 from delivered stock for 10 min at 37 °C and 500 rpm using an orbital plate shaker before undergoing one wash in PBS without divalent cations as described above. 8 well Lab-Tek II confocal chambers (VWR, PA, USA) were coated in fibronectin (1 µg/ml, Sigma-Aldrich) for 10 min at 37 °C. Wells were then washed twice before the addition of the appropriate cell suspension. Cells were typically seeded at a concentration of 0.5—1 × 10^6/mL. […]
A laser scanning confocal imaging system (LSM510; Carl Zeiss, Jena, Germany), incorporating an upright Axioskop FS2 microscope (× 63 objective) was used for image acquisition. […] Fluorescein based dyes were excited with a dedicated 488 nm laser line, with emitted light detected at 500–530 nm. Syto 82 nuclear, calcein cytoplasmic dyes and CellMask Orange plasma membrane stain (all Invitrogen, Thermoscientific) were excited with a dedicated 543 nm line, with emitted light detected at 560–600 nm. Syto 60 (Invitrogen, Thermoscientific) stain was excited with a dedicated 633 nm line, with emitted light detected at 650–680 nm. PKH labelled bacteria were excited with a dedicated 633 nm line with emitted light detected at 650–705 nm. […]

Numbered stars: 1 amine (or outer) side, 2 acyl side, 3 side chain; on linkers, the order of the positions; unused ones are H or OH. Bridge positions count the residues as written; N and C are the ends. Square brackets hold non-standard residues; d marks the D form. Peptide text beside a SMILES is read from it. I, II: the chains in the order shown. * marks the point of attachment. 5FAM = O=C1OC2(c3ccc(O)cc3Oc3cc(O)ccc32)c2ccc(C(=O)*)cc21; X1 = NC(=O)NC(COCCCN[*:1])(COCCCN[*:2])COCCCN[*:3]; Nle = CCCC[C@H](N)C(=O)O; AEEA = NCCOCCOCC(=O)O

As to `CCCC[C@H](NC(=O)[C@@H](NC(=O)[C@H](CCC(=O)O)NC(=O)[C@H](CCC(=O)O)NC(=O)COCCOCCNC(=O)c1ccc2c(c1)C(=O)OC21c2ccc(O)cc2Oc2cc(O)ccc21)[C@@H](C)CC)C(=O)N[C@@H](CCCNC(=N)N)C(=O)N[C@@H](CCCNC(=N)N)C(=O)NCCCOCC(COCCCNC(=O)[C@H](CCCNC(=N)N)NC(=O)[C@H](CCCNC(=N)N)NC(=O)[C@H](CCCC)NC(=O)[C@@H](NC(=O)[C@H](CCC(=O)O)NC(=O)[C@H](CCC(=O)O)NC(=O)COCCOCCNC(=O)c1ccc2c(c1)C(=O)OC21c2ccc(O)cc2Oc2cc(O)ccc21)[C@@H](C)CC)(COCCCNC(=O)[C@H](CCCNC(=N)N)NC(=O)[C@H](CCCNC(=N)N)NC(=O)[C@H](CCCC)NC(=O)[C@@H](NC(=O)[C@H](CCC(=O)O)NC(=O)[C@H](CCC(=O)O)NC(=O)COCCOCCNC(=O)c1ccc2c(c1)C(=O)OC21c2ccc(O)cc2Oc2cc(O)ccc21)[C@@H](C)CC)NC(N)=O` (stereo partly drawn) [NAP] (I: {5FAM-AEEA}-EEI[Nle]RR / II: {5FAM-AEEA}-EEI[Nle]RR / III: {5FAM-AEEA}-EEI[Nle]RR; linker I:C-II:C-III:C via X1), the “increase in fluorescence compared to the resting state” value in series [1] (NAP 5 µM in PBS with purified HNE, 37 °C, read every minute for 1 h, ex 488 nm / em 525 nm, three independent experiments) is listed as roughly 350%. Also, the red cell haemolysis result in series [2] is listed as “did not cause”. Also, the neutrophil necrosis entry in series [3] is given as “did not cause”. Moreover, the “local or distant organ toxicity” value in series [4] (NAP 100 µg instilled via the trachea (approximately 700 times the human dose), necroscopy at 3 and 15 days) is recorded as “No local or distant organ toxicity was observed”. In addition, in series [4] (NAP 100 µg instilled via the trachea, 3 and 15 days), the “haematological or other metabolic consequences” value is listed as “no haematological or other metabolic consequences”. In addition, the mutagenicity result in series [5] was “no mutagenicity”.

Consider `O.O=C(N/N=C/c1ccc(O)c(O)c1)c1cc2ccccc2cc1O` [Dynasore Hydate, Dynasore Hydrate], for which, in series [6], the “effect of inhibitor on intracellular NAP fluorescent signal (flow cytometry)” value (“effect of inhibitor … (flow cytometry)” below) is “abrogated”.

As to `c1ccc2c(c1)[I+]c1ccccc1-2` [DPI, Diphenyleneiodonium], in series [6], the “effect of inhibitor … (flow cytometry)” value is “reduced the overall mean fluorescent intensity”.

Consider carboxyfluorescein, for which the “change in fluorescence with pH” value in series [7] is recorded as “expected increase in fluorescence as H^+ concentration falls”.

Regarding `CC(C)(C)C(=O)Oc1ccc(S(=O)(=O)Nc2ccccc2C(=O)NCC(=O)O)cc1` [Sivelestat], the “effect of inhibitor on cleavage of NAP by HNE” value in series [1] (Sivelestat 100 µM, NAP 5 µM, 100 nM HNE) is given as “completely abrogated”. Further, the “effect of inhibitor … (flow cytometry)” value in series [6] is reported as “abrogated”. Besides, in series [8], the “effect of inhibitor on intracellular NAP fluorescent signal (confocal)” value is reported as “abrogated”.

(Values after PMC7806726, “Activated neutrophil fluorescent imaging technique for human lungs” (Scientific Reports, 2021).)
